Reference: ChEMBL document CHEMBL5247653, “Discovery of Clinical Candidate ACT-777991, a Potent CXCR3 Antagonist for Antigen-Driven and Inflammatory Pathologies” (J Med Chem, 2023)
Values after ≈ are worked out from the molar mass of the structure shown. Active and inactive are the calls of the source. The rule behind the calls is not given here.

Tests used:
[1] = Cardiotoxicity in human iPSC-derived cardiomyocytes assessed as slowing of spontaneous beating rate at 4.1 ug/ml; format: toxicity, cell-based; conditions: cardiac muscle cell, dose 4.1 µg/ml
[2] = Protein binding in rat plasma assessed as fraction unbound at 1 uM incubated for 6 hrs by rapid equilibrium dialysis based LC-MS/MS analysis; format: ADME, cell-free
[3] = molecular target: T1, C-X-C chemokine receptor type 3 (Mus musculus) (UniProt O88410); test: In vivo antagonist activity at CXCR3 in LPS-induced DBA/1 mouse model assessed as reduction in mouse CXCL10-mediated chemotaxis in CD8+ T cells at 0.06 microg/g, po bid preincubated for 3 days followed by LPS stimulation for 30 mins and measured after 3 days by flow cytometry; format: functional, organism-based; design: scale not given: the % may be the effect or the level left; conditions: T-cell, dose 0.06 µg/g, time 6.0 day
T1 sequence (whole entry): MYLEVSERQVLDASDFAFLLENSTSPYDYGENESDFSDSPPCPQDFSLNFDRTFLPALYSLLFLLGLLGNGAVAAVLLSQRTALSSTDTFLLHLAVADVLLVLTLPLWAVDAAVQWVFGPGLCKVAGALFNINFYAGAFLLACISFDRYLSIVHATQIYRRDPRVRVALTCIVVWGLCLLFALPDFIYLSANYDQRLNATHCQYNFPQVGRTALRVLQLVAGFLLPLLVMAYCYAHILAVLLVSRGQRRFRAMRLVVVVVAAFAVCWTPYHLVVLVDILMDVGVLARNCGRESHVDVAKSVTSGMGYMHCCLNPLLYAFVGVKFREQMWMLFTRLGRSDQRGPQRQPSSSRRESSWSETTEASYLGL

[4] = Clearance in Cynomolgus monkey at 1.0 mg/kg,iv or 1.25 mg/kg, po; format: ADME, organism-based, Macaca fascicularis; conditions: in vivo
[5] = molecular target: T2, C-X-C chemokine receptor type 3 (Canis lupus familiaris, UniProt Q5KSK8); test: Antagonist activity at dog CXCR3 expressed in CHO-K1 cells assessed as reduction in CXCL11 induced calcium flux by FLIPR method; format: cell-based
[6] = molecular target: T3, C-X-C chemokine receptor type 3 (Mus musculus, UniProt O88410); test: Antagonist activity at CXCR3 in DBA/1 mouse whole blood assessed as receptor internalization incubated for 30 mins in presence of CXCL10 by flow cytometric analysis; format: tissue-based
T3 sequence (O88410 whole entry): T1 sequence (whole entry)

[7] = Solubility of compound in FaSSIF at 37 degreeC; format: ADME
[8] = Total clearance in Beagle dog plasma at 1 mg/kg, iv; format: ADME, organism-based, Canis lupus familiaris
[9] = molecular target: T4, C-X-C chemokine receptor type 3 (Homo sapiens) (UniProt P49682); test: Binding affinity to CXCR3 (unknown origin) at 10 uM by radioligand binding assay; conditions: filed as antagonist
T4 sequence (whole entry): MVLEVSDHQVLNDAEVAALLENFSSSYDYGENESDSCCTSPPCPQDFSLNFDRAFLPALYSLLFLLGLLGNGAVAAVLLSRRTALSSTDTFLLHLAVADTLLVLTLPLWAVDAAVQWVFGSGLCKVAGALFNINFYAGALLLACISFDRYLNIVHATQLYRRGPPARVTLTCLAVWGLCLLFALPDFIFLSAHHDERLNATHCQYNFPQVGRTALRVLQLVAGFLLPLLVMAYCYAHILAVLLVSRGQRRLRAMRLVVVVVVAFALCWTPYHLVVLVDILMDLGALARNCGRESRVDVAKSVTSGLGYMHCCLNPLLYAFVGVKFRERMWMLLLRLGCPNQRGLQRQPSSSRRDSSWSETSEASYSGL

[10] = Total clearance in Wistar rat plasma at 0.5 mg/kg, iv; format: ADME, organism-based
[11] = Metabolic stability in rat liver microsomes assessed as M3 metabolite formation at 1 uM and measured upto 15 mins in presence of NADPH regenerating system by LC-MS/MS analysis; format: ADME, Microsome; conditions: 0.25 h
[12] = Metabolic stability in human liver microsomes assessed as M3 metabolite formation at 1 uM and measured upto 15 mins in presence of NADPH regenerating system by LC-MS/MS analysis; format: ADME, Microsome; conditions: 0.25 h
[13] = Cmax in LPS-induced DBA/1 mouse plasma at 0.06 microg/g, po bid preincubated for 3 days followed by LPS stimulation for 30 mins and measured after 72 hrs by flow cytometry; format: ADME, organism-based; design: time 6 day, dose 0.06 µg/g, route po; conditions: 0.06 µg/g
[14] = molecular target: Cytochrome P450 2D6 (Homo sapiens, UniProt P10635); test: Time dependent inhibition of CYP2D6 (unknown origin); format: ADME
[15] = Clearance in Beagle dog at 2.5 mg/kg,iv or 2.5 mg/kg, po; format: ADME, organism-based, Canis lupus familiaris; conditions: in vivo
[16] = In vivo inhibition of hERG in iv dosed dog assessed as increase in QTc interval; format: toxicity, organism-based, Canis lupus familiaris
[17] = molecular target: Solute carrier organic anion transporter family member 1B1 (Homo sapiens, UniProt Q9Y6L6); test: Inhibition of human OATP1B1; format: ADME
[18] = molecular target: C-X-C chemokine receptor type 5 (Homo sapiens) (UniProt P32302); test: Binding affinity to CXCR5 (unknown origin) at 10 uM by radioligand binding assay
[19] = In vivo inhibition of hERG in guinea pig assessed as increase in QTc interval at 27 ug/ml, iv; format: toxicity, organism-based, Cavia porcellus; conditions: at 27 µg/mL
[20] = Half life in Wistar rat at 3 mg/kg,iv or 3mg/kg, po; format: ADME, organism-based; conditions: in vivo
[21] = Protein binding in dog plasma assessed as fraction unbound at 1 uM incubated for 6 hrs by rapid equilibrium dialysis based LC-MS/MS analysis; format: ADME, cell-free, Canis lupus familiaris
[22] = molecular target: C-X-C chemokine receptor type 3 (Rattus norvegicus, UniProt Q9JII9); test: Antagonist activity at CXCR3 in Wistar rat whole blood assessed as receptor internalization incubated for 30 mins in presence of CXCL10 by flow cytometric analysis; format: tissue-based
[23] = molecular target: T2, C-X-C chemokine receptor type 3; test: Antagonist activity at dog CXCR3 expressed in CHO-K1 cells assessed as reduction in CXCL10 induced calcium flux by FLIPR method; format: cell-based
[24] = Metabolic stability in dog hepatocyte assessed as M2 metabolite formation at 1 uM and measured upto 15 mins in presence of NADPH regenerating system by LC-MS/MS analysis; format: ADME, cell-based, Canis lupus familiaris; conditions: hepatocytes, 0.25 h
[25] = molecular target: C-X-C chemokine receptor type 6 (Homo sapiens) (UniProt O00574); test: Binding affinity to CXCR6 (unknown origin) at 10 uM by radioligand binding assay
[26] = test system: NIH3T3; test: Phototoxicity in BALB/c mouse 3T3 cells upto 100 ug/ml in presence of irradiation; format: toxicity, cell-based; conditions: dose < 100 µg/ml
[27] = Protein binding in human plasma assessed as fraction unbound at 1 uM incubated for 6 hrs by rapid equilibrium dialysis based LC-MS/MS analysis; format: ADME, cell-free
[28] = Tmax in Beagle dog at 2.5 mg/kg,iv or 2.5 mg/kg, po; format: ADME, organism-based, Canis lupus familiaris; conditions: in vivo
[29] = molecular target: T3, C-X-C chemokine receptor type 3; test: Antagonist activity at mouse CXCR3 expressed in CHO-K1 cells assessed as reduction in CXCL10 induced calcium flux by FLIPR method; format: cell-based
[30] = molecular target: Cytochrome P450 2C9 (Homo sapiens, UniProt P11712); test: Competitive inhibition of CYP2C9 (unknown origin); format: ADME
[31] = Solubility of compound in FeSSIF at 37 degreeC; format: ADME
[32] = Metabolic stability in dog hepatocyte assessed as M1 metabolite formation at 1 uM and measured upto 15 mins in presence of NADPH regenerating system by LC-MS/MS analysis; format: ADME, cell-based, Canis lupus familiaris; conditions: hepatocytes, 0.25 h

T2 sequence (Q5KSK8 whole entry): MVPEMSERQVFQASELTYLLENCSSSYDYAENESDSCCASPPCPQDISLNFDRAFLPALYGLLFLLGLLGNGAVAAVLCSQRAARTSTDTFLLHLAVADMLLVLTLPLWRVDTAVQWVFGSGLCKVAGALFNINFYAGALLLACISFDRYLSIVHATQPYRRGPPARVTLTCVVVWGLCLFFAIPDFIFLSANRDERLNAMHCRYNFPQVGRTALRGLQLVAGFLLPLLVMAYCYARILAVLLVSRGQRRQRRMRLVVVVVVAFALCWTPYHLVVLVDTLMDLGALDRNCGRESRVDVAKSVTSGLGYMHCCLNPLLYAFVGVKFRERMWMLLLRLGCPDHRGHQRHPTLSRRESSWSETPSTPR
Solute carrier organic anion transporter family member 1B1, sequence (Q9Y6L6 whole entry): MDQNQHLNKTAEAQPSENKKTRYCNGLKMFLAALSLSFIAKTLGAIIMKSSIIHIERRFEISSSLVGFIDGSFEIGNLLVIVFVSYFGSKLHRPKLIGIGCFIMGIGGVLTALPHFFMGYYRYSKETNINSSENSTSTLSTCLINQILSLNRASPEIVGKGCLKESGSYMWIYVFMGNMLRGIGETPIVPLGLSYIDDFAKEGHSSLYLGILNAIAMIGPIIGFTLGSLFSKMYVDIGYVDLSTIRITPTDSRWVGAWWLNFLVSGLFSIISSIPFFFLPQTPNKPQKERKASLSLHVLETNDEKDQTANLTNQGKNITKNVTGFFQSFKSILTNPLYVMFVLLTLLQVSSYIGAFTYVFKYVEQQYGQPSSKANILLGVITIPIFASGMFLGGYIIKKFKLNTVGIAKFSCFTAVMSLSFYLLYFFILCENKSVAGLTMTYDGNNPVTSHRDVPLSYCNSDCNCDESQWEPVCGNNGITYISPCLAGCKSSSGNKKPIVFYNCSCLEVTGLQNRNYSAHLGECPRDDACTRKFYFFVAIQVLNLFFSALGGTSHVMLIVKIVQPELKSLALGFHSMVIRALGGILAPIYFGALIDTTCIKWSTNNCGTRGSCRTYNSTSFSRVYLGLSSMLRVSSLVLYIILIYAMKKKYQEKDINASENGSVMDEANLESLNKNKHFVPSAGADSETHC
Cytochrome P450 2C9, sequence (P11712 whole entry): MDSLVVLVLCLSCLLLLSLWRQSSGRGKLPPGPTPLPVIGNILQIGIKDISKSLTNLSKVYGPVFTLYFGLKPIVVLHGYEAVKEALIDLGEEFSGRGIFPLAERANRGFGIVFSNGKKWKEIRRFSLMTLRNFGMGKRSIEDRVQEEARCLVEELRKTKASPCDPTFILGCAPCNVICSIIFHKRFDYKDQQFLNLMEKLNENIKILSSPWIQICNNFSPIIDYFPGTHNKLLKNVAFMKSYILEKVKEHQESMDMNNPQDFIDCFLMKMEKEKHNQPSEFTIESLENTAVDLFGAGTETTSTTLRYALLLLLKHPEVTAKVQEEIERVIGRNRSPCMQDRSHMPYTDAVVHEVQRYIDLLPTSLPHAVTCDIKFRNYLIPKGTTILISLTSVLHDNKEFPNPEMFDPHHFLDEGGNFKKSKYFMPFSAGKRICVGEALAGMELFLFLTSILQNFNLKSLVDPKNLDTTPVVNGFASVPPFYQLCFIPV
C-X-C chemokine receptor type 6 (Homo sapiens), sequence (O00574 whole entry, looked up): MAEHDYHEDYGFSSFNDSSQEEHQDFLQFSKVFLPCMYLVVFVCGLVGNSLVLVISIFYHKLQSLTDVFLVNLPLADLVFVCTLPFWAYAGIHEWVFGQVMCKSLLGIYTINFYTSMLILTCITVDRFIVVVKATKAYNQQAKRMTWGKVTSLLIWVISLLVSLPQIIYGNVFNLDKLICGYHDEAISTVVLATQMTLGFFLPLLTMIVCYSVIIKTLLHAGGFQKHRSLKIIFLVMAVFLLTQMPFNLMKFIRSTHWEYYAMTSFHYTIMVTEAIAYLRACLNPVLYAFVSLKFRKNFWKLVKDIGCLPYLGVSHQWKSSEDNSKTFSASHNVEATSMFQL
Cytochrome P450 2D6, sequence (P10635 whole entry): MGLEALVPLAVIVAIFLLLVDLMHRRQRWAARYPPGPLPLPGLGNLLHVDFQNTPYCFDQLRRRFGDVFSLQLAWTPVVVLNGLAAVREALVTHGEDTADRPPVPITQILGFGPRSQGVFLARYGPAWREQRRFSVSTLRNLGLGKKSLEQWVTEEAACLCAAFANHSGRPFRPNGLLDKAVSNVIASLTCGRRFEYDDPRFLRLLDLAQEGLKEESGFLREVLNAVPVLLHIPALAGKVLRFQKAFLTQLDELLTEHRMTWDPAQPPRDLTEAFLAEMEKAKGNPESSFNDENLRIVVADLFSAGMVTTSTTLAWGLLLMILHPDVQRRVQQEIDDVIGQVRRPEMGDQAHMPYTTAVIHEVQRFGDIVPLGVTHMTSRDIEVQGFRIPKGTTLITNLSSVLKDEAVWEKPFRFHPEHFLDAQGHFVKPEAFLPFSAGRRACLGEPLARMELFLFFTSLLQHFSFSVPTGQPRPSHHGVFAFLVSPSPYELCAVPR
C-X-C chemokine receptor type 3 (Rattus norvegicus, UniProt Q9JII9), sequence (Q9JII9 whole entry): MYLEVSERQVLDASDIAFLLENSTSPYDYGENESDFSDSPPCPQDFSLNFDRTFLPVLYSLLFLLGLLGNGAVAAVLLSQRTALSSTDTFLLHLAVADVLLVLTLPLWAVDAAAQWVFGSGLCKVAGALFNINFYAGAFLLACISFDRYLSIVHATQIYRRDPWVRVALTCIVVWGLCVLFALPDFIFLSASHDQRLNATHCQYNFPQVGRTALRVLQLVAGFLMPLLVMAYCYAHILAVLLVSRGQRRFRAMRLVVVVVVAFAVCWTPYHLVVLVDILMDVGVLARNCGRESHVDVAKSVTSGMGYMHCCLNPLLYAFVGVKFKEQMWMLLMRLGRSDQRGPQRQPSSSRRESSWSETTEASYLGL
C-X-C chemokine receptor type 5 (Homo sapiens), sequence (P32302 whole entry): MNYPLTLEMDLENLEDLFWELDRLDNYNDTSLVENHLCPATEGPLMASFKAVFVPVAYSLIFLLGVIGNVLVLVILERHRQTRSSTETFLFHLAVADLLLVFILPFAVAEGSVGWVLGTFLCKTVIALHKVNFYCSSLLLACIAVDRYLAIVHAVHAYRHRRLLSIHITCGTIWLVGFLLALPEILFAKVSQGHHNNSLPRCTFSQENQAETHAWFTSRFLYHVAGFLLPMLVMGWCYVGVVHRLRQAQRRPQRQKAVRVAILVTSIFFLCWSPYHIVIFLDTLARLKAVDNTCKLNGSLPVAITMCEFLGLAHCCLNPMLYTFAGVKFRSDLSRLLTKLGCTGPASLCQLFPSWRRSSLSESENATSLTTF

Structure (SMILES): Cc1ncn(CC(=O)N2CCN(c3sc(C(F)(F)F)nc3-c3cnc(C(F)(F)F)nc3)C[C@H]2CCO)n1
- Activity [1]: Toxic
- fraction unbound at 6 h, 1 µM [2]: 0.09
- Activity [3]: 55%
- clearance [4]: 5.3 mL/min/kg
- IC50 [5]: 0.004 µM
- IC50 [6]: 0.161 µM
- solubility [7]: 718 µg/mL (≈ 1300 µM)
- clearance [8]: 5 mL/min/kg
- Activity [9]: Active
- clearance [10]: 14 mL/min/kg
- Stability [11]: Unstable
- Stability [12]: Unstable
- Cmax [13]: 559 ng/mL
- IC50 [14]: > 50 µM
- clearance [15]: 9.5 mL/min/kg
- inhibition (INH) [16]: Toxic
- inhibition (INH) [17]: Not Active
- Activity [18]: inactive
- inhibition (INH) [19]: Toxic
- half-life [20]: 5.5 h
- fraction unbound at 6 h, 1 µM [21]: 0.34
- IC50 [22]: 0.291 µM
- IC50 [23]: 0.0028 µM
- Stability [24]: Unstable
- Activity [25]: inactive
- Activity [26]: Non-Toxic
- fraction unbound at 6 h, 1 µM [27]: 0.23
- Tmax [28]: 0.4 h
- IC50 [29]: 0.0015 µM
- IC50 [30]: > 50 µM
- solubility [31]: 1250 µg/mL (≈ 2270 µM)
- Stability [32]: Unstable
